These results are taken from article PMC9602571, “Discovery of a Dual SENP1 and SENP2 Inhibitor” (International Journal of Molecular Sciences, 2022).

Read-outs that look alike come from different tables or passages of the source. Where only a bound is given, the exact number is not on record here.

In one data set the target is T1, SENP1 (Homo sapiens, UniProt Q9P0U3).
T1 construct: Human recombinant, His6-SENP1 Catalytic Domain; His6 (N); purchased Boston Biochem (Bio-Techne AG) E-700
T1 sequence (Q9P0U3 450-613 limits assumed): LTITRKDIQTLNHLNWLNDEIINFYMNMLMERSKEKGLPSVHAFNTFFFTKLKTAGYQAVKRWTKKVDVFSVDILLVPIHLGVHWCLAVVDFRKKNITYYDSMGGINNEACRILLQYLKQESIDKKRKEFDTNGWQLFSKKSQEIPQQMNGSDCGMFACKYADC
The data set can be described thus: Fluorogenic SENP1 assay, SUMO1-AMC substrate. As to conditions: for LE (ligand efficiency): calculated: 1.4(-logIC50)/N; for reduced inhibition by a factor: compared to hit compound 11. In kind it is biochemical. The protocol: Human recombinant, His6-SENP1 Catalytic Domain (Boston Biochem Cat# E-700, Bio-Techne AG, Zug, Switzerland) was prepared in reaction buffer (50 mM HEPES, 150 mM NaCl, 0.5 mM EDTA, 1 mM DTT, pH 7.5, 0.01% CHAPS). To this solution, a 20 mM or 50 mM inhibitor stock solution in DMSO was added and the mixture was incubated for 15 min at ambient temperature. […] The slope was calculated using Excel and the curve fits were performed using GraphPad Prism7 with a four-parameter least-squares fit. The final reaction conditions contained 0.02 nM SENP1 and 300 nM SUMO1/2 or 3-AMC).

Setting [1] is: SUMO1-AMC 300 nM, 0.02 nM SENP1, interval in parentheses, read-out: IC50 SENP1.
Setting [2] is: screening library samples, SUMO1-AMC, read-out: IC50 SENP1 of hit molecules.

For the molecule `O=C1Nc2ccccc2NC12CCCCCCC2` [Compound 28, 3′,4′-Dihydro-1′H-spiro[cyclooctane-1,2′-quinoxalin]-3′-one], on SENP1 (setting [1]), the IC50 (as a rule, the concentration that gives 50% inhibition) was found to be 51 µM. In addition, the “LE (ligand efficiency)” value at SENP1 is 0.33.

Consider `COc1ccc(N(C)CC(=O)N2c3ccccc3NC(=O)C2(C)C)cc1` [Compound S7], for which, at SENP1 (setting [1]), the IC50 was > 200 µM.

On to `CC1CCn2cc(C(=O)NC3CCn4cc(-c5ccc(F)cc5F)nc4C3)nc2C1` (centres unmarked) [Compound 13], for which the IC50 at SENP1 (setting [2]) was determined as 28 µM.

Take `CN(CC(=O)N1c2ccccc2NC(=O)C1(C)C)c1ccccc1` [Compound S6]: the IC50 on SENP1 (setting [1]) was > 200 µM.

For `CC1(C)Nc2ccccc2NC1=O` [Compound 16, 3,3-Dimethyl-1,2,3,4-tetrahydroquinoxalin-2-one], the melting point (commonly the temperature, or range, at which the solid turns liquid) stood at 178 °C. Moreover, on SENP1, the inhibition (commonly the share of the control response that was lost under treatment) at 500 µM was ~50%. Also, the IC50 at SENP1 (setting [1]) was > 500 µM. On to `O=C(O)c1cccc(-c2cn(CC(=O)N3c4ccccc4NC(=O)C34CCCC4)nn2)c1` [Compound 47, 3-[1-(2-Oxo-2-{3′-oxo-3′,4′-dihydro-1′H-spiro[cyclopentane-1,2′-quinoxalin]-1′-yl}ethyl)-1H-1,2,3-triazol-4-yl]benzoic acid], for which the melting point was 272 °C (dec.). Further, on SENP1 (setting [1]), the IC50 stood at 29 µM.

`O=C1NC2(CCCC2)Nc2ccccc21` [Compound 32, 3′,4′-Dihydro-1′H-spiro[cyclopentane-1,2′-quinazolin]-4′-one]: the melting point is 233 to 238 °C (dec.).

For `CC1(C)C(=O)Nc2ccccc2N1C(=O)COc1ccccc1` [Compound S3], at SENP1 (setting [1]), the IC50 was > 200 µM.

Take `O=C1Nc2cscc2NC12CCCCC2` [Compound 36, 3′,4′-Dihydro-1′H-spiro[cyclohexane-1,2′-thieno [3,4-b]pyrazin]-3′-one]: on SENP1 (setting [1]), the IC50 stood at 61 µM. Besides, on SENP1, the “LE (ligand efficiency)” value was 0.39.

For the molecule `O=C1Nc2ccccc2NC12CCOCC2` [Compound 31, 3′,4′-Dihydro-1′H-spiro[oxane-4,2′-quinoxalin]-3′-one], the melting point was 211 to 226 °C (dec.). Also, the IC50 at SENP1 (setting [1]) stood at 233 µM. Further, the “LE (ligand efficiency)” value at SENP1 is reported as 0.32. In the case of `CN(CC(=O)N1c2ccccc2NC(=O)C1(C)C)Cc1ccccc1` [Compound S5], the IC50 at SENP1 (setting [1]) is > 200 µM. Take `O=C1Nc2ccccc2OC12CCCC2` [Compound 26, 3,4-Dihydrospiro [1,4-benzoxazine-2,1′-cyclopentan]-3-one]: the melting point lay in the range of 157 to 162 °C. For the same molecule, on SENP1 (setting [1]), the IC50 came to 78 µM. Moreover, at SENP1, the “LE (ligand efficiency)” value is reported as 0.38. Turning to `O=C(CN1CCN(c2ccccc2)CC1)N1c2ccccc2NC(=O)C12CCCC2` [Compound S1], the IC50 on SENP1 (setting [1]) was 152 µM. Turning to `O=C(Cn1cc(-c2ccccn2)nn1)N1c2ccccc2NC(=O)C12CCCC2` [Compound 50, 1′-{2-[4-(Pyridin-2-yl)-1H-1,2,3-triazol-1-yl]acetyl}-3′,4′-dihydro-1′H-spiro[cyclopentane-1,2′-quinoxalin]-3′-one], the melting point is 218 °C (dec.). Besides, the IC50 on SENP1 (setting [1]) is > 200 µM. For the same molecule, the “SENP1 inhibition in words” value at SENP1 (at 200 µM) is “only slight inhibition”. As for `CCCCCCCC(=O)N1c2ccccc2NC(=O)C12CCCC2` [Compound 57, 1′-Octanoyl-3′,4′-dihydro-1′H-spiro[cyclopentane-1,2′-quinoxalin]-3′-one], the melting point was in the range of 67 to 70 °C. The IC50 on SENP1 (setting [1]) was 6.6 µM.

As for `Cc1c(C(=O)N2CCC(C)CC2)nnn1-c1cccc2c1CCN(Cc1ccccc1)C2` [Compound 12], at SENP1 (setting [2]), the IC50 was found to be 27 µM. With `COCCc1cn(CC(=O)N2c3ccccc3NC(=O)C23CCCC3)nn1` [Compound 53, 1′-{2-[4-(2-Methoxyethyl)-1H-1,2,3-triazol-1-yl]acetyl}-3′,4′-dihydro-1′H-spiro[cyclopentane-1,2′-quinoxalin]-3′-one], on SENP1 (setting [1]), the IC50 was > 100 µM. Regarding `COC(=O)c1ccc2c(c1)NC(=O)C1(CCCC1)N2` [Compound 40, Methyl 3′-oxo-3′,4′-dihydro-1′H-spiro[cyclopentane-1,2′-quinoxaline]-6′-carboxylate], the melting point was 246 to 250 °C (dec.). The IC50 at SENP1 (setting [1]) was determined as 202 µM. Moreover, the “LE (ligand efficiency)” value on SENP1 is on record as 0.28. Molecule `COc1cccc2c1NC(=O)C1(CCCC1)N2` [Compound 37, 5′-Methoxy-3′,4′-dihydro-1′H-spiro[cyclopentane-1,2′-quinoxalin]-3′-one] came in with a melting point of 176 to 180 °C. Besides, the IC50 on SENP1 (setting [1]) stood at 110 µM. The “LE (ligand efficiency)” value at SENP1 was 0.34. Molecule `COC(=O)c1cccc2c1NC(=O)C1(CCCC1)N2` [Compound 38, Methyl 3′-oxo-3′,4′-dihydro-1′H-spiro[cyclopentane-1,2′-quinoxaline]-5′-carboxylate] came in with a melting point of 147 to 149 °C. Moreover, on SENP1 (setting [1]), the IC50 was 61 µM. Also, the “LE (ligand efficiency)” value at SENP1 was 0.33. With `O=C(Cn1cc(-c2ccccc2)nn1)N1c2ccccc2NC(=O)C12CCCC2` [Compound 44, 1′-[2-(4-Phenyl-1H-1,2,3-triazol-1-yl)acetyl]-3′,4′-dihydro-1′H-spiro[cyclopentane-1,2′-quinoxalin]-3′-one], the melting point was 256 °C (dec.). In addition, at SENP1 (setting [1]), the IC50 turned out to be 23 µM. Turning to `O=C(Cn1cc(C2CC2)nn1)N1c2ccccc2NC(=O)C12CCCC2` [Compound 51, 1′-[2-(4-Cyclopropyl-1H-1,2,3-triazol-1-yl)acetyl]-3′,4′-dihydro-1′H-spiro[cyclopentane-1,2′-quinoxalin]-3′-one], the IC50 on SENP1 (setting [1]) was > 200 µM. With `CC1(C)C(=O)Nc2ccccc2N1C(=O)CN1CCN(c2ccccc2)CC1` [Compound S2], the IC50 on SENP1 (setting [1]) came out at 101 µM.

As for `O=C1Nc2ccccc2NC12CCCCC2` [Compound 27, 3′,4′-Dihydro-1′H-spiro[cyclohexane-1,2′-quinoxalin]-3′-one], the melting point is 230 to 234 °C (dec.). For the same molecule, on SENP1 (setting [1]), the IC50 is 261 µM. Further, the “LE (ligand efficiency)” value on SENP1 is given as 0.31. The matching figures for `O=C1Nc2ccccc2NC12CCCC2` [Compound 15, 3′,4′-Dihydro-1′H-spiro[cyclopentane-1,2′-quinoxalin]-3′-one]: 174 °C, 116 µM and 0.37. `O=C1CN(C(=O)Cn2nnc(-c3ccccc3)n2)c2ccccc2N1` [Compound 24, 4-[2-(5-Phenyl-2H-1,2,3,4-tetrazol-2-yl)acetyl]-1,2,3,4-tetrahydroquinoxalin-2-one]: the melting point was 231 °C (dec.). Also, at SENP1 (setting [1]), the IC50 turned out to be 77.6 µM. Also, the “reduced inhibition by a factor” value on SENP1 came to 10. For the molecule `O=C(O)Cc1cn(CC(=O)N2c3ccccc3NC(=O)C23CCCC3)nn1` [Compound 52, 2-[1-(2-Oxo-2-{3′-oxo-3′,4′-dihydro-1′H-spiro[cyclopentane-1,2′-quinoxalin]-1′-yl}ethyl)-1H-1,2,3-triazol-4-yl]acetic acid], the melting point is 230 °C (dec.). Further, the IC50 at SENP1 (setting [1]) is > 100 µM.

Turning to `O=C1Nc2ccccc2NC12COC2` [Compound 30, 3′,4′-Dihydro-1′H-spiro[oxetane-3,2′-quinoxalin]-3′-one], the melting point is 165 to 170 °C (dec.). In addition, at SENP1 (setting [1]), the IC50 was 81 µM. Besides, the “LE (ligand efficiency)” value at SENP1 was 0.41. On to `c1ccc2c(c1)NCC1(CCCC1)N2` [Compound 33, 3′,4′-Dihydro-1′H-spiro[cyclopentane-1,2′-quinoxaline]], for which the melting point fell in the range of 80 to 82 °C. In addition, the IC50 on SENP1 (setting [1]) was > 500 µM. `O=C1CNc2ccccc2N1` [Compound 25, 1,2,3,4-tetrahydroquinoxalin-2-one]: at SENP1 (setting [1]), the IC50 was > 500 µM.

Consider `O=C(Cn1cc(Cc2ccccc2)nn1)N1c2ccccc2NC(=O)C12CCCC2` [Compound 46, 1′-[2-(4-Benzyl-1H-1,2,3-triazol-1-yl)acetyl]-3′,4′-dihydro-1′H-spiro[cyclopentane-1,2′-quinoxalin]-3′-one], for which the melting point is 203 °C (dec.). Also, the IC50 on SENP1 (setting [1]) came to 38 µM. On to `CC1(C)C(=O)Nc2ccccc2N1C(=O)CN1CCc2ccccc21` [Compound S4], for which the IC50 on SENP1 (setting [1]) was 153 µM.

For `O=C1Nc2ncccc2NC12CCCC2` [Compound 34, 3′,4′-Dihydro-1′H-spiro[cyclopentane-1,2′-pyrido [2,3-b]pyrazin]-3′-one], at SENP1 (setting [1]), the IC50 is > 500 µM. Also, at SENP1 (up to 500 µM), the “SENP1 activity in words” value is on record as “complete loss of activity”.

Regarding `CC1(C)C(=O)Nc2ccccc2N1C(=O)Cn1nnc(-c2ccccc2)n1` [Compound 23, 3,3-Dimethyl-4-[2-(5-phenyl-2H-1,2,3,4-tetrazol-2-yl)acetyl]-1,2,3,4-tetrahydroquinoxalin-2-one], the melting point was 252 °C (dec.). Besides, the IC50 on SENP1 (setting [1]) is 12.3 µM. In addition, the “reduced inhibition by a factor” value on SENP1 came to 1.5. For `COC(=O)c1ccc(-c2cn(CC(=O)N3c4ccccc4NC(=O)C34CCCC4)nn2)cc1` [Compound 48, Methyl 4-[1-(2-oxo-2-{3′-oxo-3′,4′-dihydro-1′H-spiro[cyclopentane-1,2′-quinoxalin]-1′-yl}ethyl)-1H-1,2,3-triazol-4-yl]benzoate], the melting point was 263 °C (dec.). Besides, the IC50 at SENP1 (setting [1]) is 7.5 µM. For `O=C1Nc2ccccc2NC12CCC2` [Compound 29, 3′,4’-Dihydro-1′H-spiro[cyclobutane-1,2′-quinoxalin]-3′-one], the IC50 on SENP1 (setting [1]) stood at 66 µM. Besides, the “LE (ligand efficiency)” value at SENP1 is 0.42.
